Assay [1] deals with bovine nasal cartilage explants. Kind of assay: Proteoglycan degradation in bovine nasal cartilage explants, basal and TNF alpha stimulated; assay for sulfated glycosaminoglycans. The assay is classed as cell-based. The conditions noted are these: EGCg 22 μM, 5 days culture, with or without recombinant human tumor necrosis factor alpha 3 nM. On the procedure: See, Haqqi, et al., Proc. Natl. Acad. Sci., USA, 96:4524-29 (1999). […] Id. In an experiment, purified EGCg, from Sigma Chemical Supply, St. Louis, Mo., was placed with bovine nasal cartilage explants at a concentration of22 μM. This mixture was cultured for 5 days in the presence or absence of the pro-inflammatory cytokine, recombinant human tumor necrosis factor alpha at 3 nM. The inhibition of both the basal and stimulated protcoglycan degradation by EGCg was measured using a calorimetric assay for sulfated glycosaminoglycans. See, Farndale, et al., Biochem. Biophys. Acta, 4:883 (1986).

The subject of another assay is cartilage degradation. The conditions noted are these: mammals; cited from earlier work.

Regarding epigallocatechin-3-gallate [EGCg], the “inhibition of basal and stimulated proteoglycan degradation (cartilage breakdown)” value in assay [1] is recorded as “potent inhibitor of cartilage breakdown”. Also, the “inhibition of cartilage degradation” value in the assay on cartilage degradation is given as “inhibitor of cartilage degradation”.

These data come from patent US6428817B1, “Companion animal therapeutic treat” (priority 2001, dated 2002).
